Data published in PubChem BioAssay AID2060621 (Molecular Pharmacology Branch, DTP, NCI, 2025).

Tested on: 324938-238-R-J1-PDC complex spheroids viability
Test: Anticancer human tumor 324938-238-R-J1-PDC patient-derived bladder carcinoma cell line growth inhibition [CLK]
Details: for IC50: curve of first compound; for viability, T/C: stronger effect = lower value
Procedure, shortened: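 Patient-derived tumor cells grown as complex spheroids with HUVEC endothelial cells and mesenchymal stem cells, treated with drug combinations. Concentrations descend in half-log steps from near clinical Cmax, or from 10 microM if Cmax unknown.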

[1] = second compound 0.0316 µM, first compound 0.0316 µM
[2] = second compound 0.0316 µM, first compound 0.1 µM
[3] = second compound 0.0316 µM, first compound 0.316 µM
[4] = second compound 0.0316 µM, first compound 1 µM
[5] = second compound 0.1 µM, first compound 0.0316 µM
[6] = second compound 0.1 µM, first compound 0.1 µM
[7] = second compound 0.1 µM, first compound 0.316 µM
[8] = second compound 0.1 µM, first compound 1 µM
[9] = second compound 0.316 µM, first compound 0.0316 µM
[10] = second compound 0.316 µM, first compound 0.1 µM
[11] = second compound 0.316 µM, first compound 0.316 µM
[12] = second compound 0.316 µM, first compound 1 µM
[13] = second compound 1 µM, first compound 0.0316 µM
[14] = second compound 1 µM, first compound 0.1 µM
[15] = second compound 1 µM, first compound 0.316 µM
[16] = second compound 1 µM, first compound 1 µM
[17] = second compound 3.16 µM, first compound 0.0316 µM
[18] = second compound 3.16 µM, first compound 0.1 µM
[19] = second compound 3.16 µM, first compound 0.316 µM
[20] = second compound 3.16 µM, first compound 1 µM
[21] = second compound 10 µM, first compound 0.0316 µM
[22] = second compound 10 µM, first compound 0.1 µM
[23] = second compound 10 µM, first compound 0.316 µM
[24] = second compound 10 µM, first compound 1 µM
[25] = second compound 0.0316 µM, first compound 0.00316 µM
[26] = second compound 0.0316 µM, first compound 0.01 µM
[27] = second compound 0.1 µM, first compound 0.00316 µM
[28] = second compound 0.1 µM, first compound 0.01 µM
[29] = second compound 0.316 µM, first compound 0.00316 µM
[30] = second compound 0.316 µM, first compound 0.01 µM
[31] = second compound 1 µM, first compound 0.00316 µM
[32] = second compound 1 µM, first compound 0.01 µM
[33] = second compound 3.16 µM, first compound 0.00316 µM
[34] = second compound 3.16 µM, first compound 0.01 µM
[35] = second compound 10 µM, first compound 0.00316 µM
[36] = second compound 10 µM, first compound 0.01 µM
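Further: viability read after seven days of drug exposure.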
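Wherever viability, T/C is given: 100% = DMSO vehicle control wells.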

CC(Nc1ccc2c(c1)OCCn1cc(N3C(=O)OCC3C(F)F)nc1-2)C(N)=O (stereo unspecified) + CNC(=O)c1ccc(Nc2nc(OC3CCCC3)c3c(-c4ccc5nc(C)oc5c4)c[nH]c3n2)c(OC)c1
IC50 (second compound 0.0316 µM): 0.169 µM | IC50 (second compound 0.1 µM): < 0.0316 µM | IC50 (second compound 0.316 µM): < 0.0316 µM | IC50 (second compound 1 µM): < 0.0316 µM | IC50 (second compound 3.16 µM): < 0.0316 µM | IC50 (second compound 10 µM): < 0.0316 µM | viability, T/C [1]: 78.8% | viability, T/C [2]: 52.5% | viability, T/C [3]: 42.1% | viability, T/C [4]: 35.5% | viability, T/C (second compound 0.0316 µM, first compound 3.16 µM): 22.2% | viability, T/C (second compound 0.0316 µM, first compound 10 µM): 15.3% | viability, T/C [5]: 32.2% | viability, T/C [6]: 28.1% | viability, T/C [7]: 25% | viability, T/C [8]: 21.1% | viability, T/C (second compound 0.1 µM, first compound 3.16 µM): 20.2% | viability, T/C (second compound 0.1 µM, first compound 10 µM): 13.6% | viability, T/C [9]: 14% | viability, T/C [10]: 10.9% | viability, T/C [11]: 9.84% | viability, T/C [12]: 9.27% | viability, T/C (second compound 0.316 µM, first compound 3.16 µM): 6.34% | viability, T/C (second compound 0.316 µM, first compound 10 µM): 5.89% | viability, T/C [13]: 13.4% | viability, T/C [14]: 12.3% | viability, T/C [15]: 8.46% | viability, T/C [16]: 6.86% | viability, T/C (second compound 1 µM, first compound 3.16 µM): 5.9% | viability, T/C (second compound 1 µM, first compound 10 µM): 4.88% | viability, T/C [17]: 13.1% | viability, T/C [18]: 9.57% | viability, T/C [19]: 9.31% | viability, T/C [20]: 7.44% | viability, T/C (second compound 3.16 µM, first compound 3.16 µM): 7.17% | viability, T/C (second compound 3.16 µM, first compound 10 µM): 4.87% | viability, T/C [21]: 14.4% | viability, T/C [22]: 9.66% | viability, T/C [23]: 9.38% | viability, T/C [24]: 7.73% | viability, T/C (second compound 10 µM, first compound 3.16 µM): 7.48% | viability, T/C (second compound 10 µM, first compound 10 µM): 4.64%

CCN1CCN(Cc2ccc(Nc3ncc(F)c(-c4cc(F)c5nc(C)n(C(C)C)c5c4)n3)nc2)CC1 + CNC(=O)c1ccc(Nc2nc(OC3CCCC3)c3c(-c4ccc5nc(C)oc5c4)c[nH]c3n2)c(OC)c1
IC50 (second compound 0.0316 µM): 0.0876 µM | IC50 (second compound 0.1 µM): < 0.00316 µM | IC50 (second compound 0.316 µM): < 0.00316 µM | IC50 (second compound 1 µM): < 0.00316 µM | IC50 (second compound 3.16 µM): < 0.00316 µM | IC50 (second compound 10 µM): < 0.00316 µM | viability, T/C [25]: 75.9% | viability, T/C [26]: 77.3% | viability, T/C [1]: 57.8% | viability, T/C [2]: 49.9% | viability, T/C [3]: 42.8% | viability, T/C [4]: 36.6% | viability, T/C [27]: 32.2% | viability, T/C [28]: 31.5% | viability, T/C [5]: 29.7% | viability, T/C [6]: 30.7% | viability, T/C [7]: 33.5% | viability, T/C [8]: 38.7% | viability, T/C [29]: 19.7% | viability, T/C [30]: 17% | viability, T/C [9]: 19% | viability, T/C [10]: 22.7% | viability, T/C [11]: 30.5% | viability, T/C [12]: 33.3% | viability, T/C [31]: 18.5% | viability, T/C [32]: 17.9% | viability, T/C [13]: 16.8% | viability, T/C [14]: 21.5% | viability, T/C [15]: 22.6% | viability, T/C [16]: 31.9% | viability, T/C [33]: 19% | viability, T/C [34]: 18% | viability, T/C [17]: 16.1% | viability, T/C [18]: 20.6% | viability, T/C [19]: 29.9% | viability, T/C [20]: 30.5% | viability, T/C [35]: 16.4% | viability, T/C [36]: 15.9% | viability, T/C [21]: 21.2% | viability, T/C [22]: 18.4% | viability, T/C [23]: 23% | viability, T/C [24]: 32.5%

COc1c(OCCCN2CCOCC2)ccc2c3n(c(=NC(=O)c4cnc(N)nc4)nc12)CCN3 + CNC(=O)c1ccc(Nc2nc(OC3CCCC3)c3c(-c4ccc5nc(C)oc5c4)c[nH]c3n2)c(OC)c1
IC50 (second compound 0.0316 µM): 0.0215 µM | IC50 (second compound 0.1 µM): < 0.00316 µM | IC50 (second compound 0.316 µM): < 0.00316 µM | IC50 (second compound 1 µM): < 0.00316 µM | IC50 (second compound 3.16 µM): < 0.00316 µM | IC50 (second compound 10 µM): < 0.00316 µM | viability, T/C [25]: 72.8% | viability, T/C [26]: 66.1% | viability, T/C [1]: 41.3% | viability, T/C [2]: 19.4% | viability, T/C [3]: 7.32% | viability, T/C [4]: 0.92% | viability, T/C [27]: 36.3% | viability, T/C [28]: 34.7% | viability, T/C [5]: 32.4% | viability, T/C [6]: 19.4% | viability, T/C [7]: 6.56% | viability, T/C [8]: 1.65% | viability, T/C [29]: 15.5% | viability, T/C [30]: 12.7% | viability, T/C [9]: 10.2% | viability, T/C [10]: 4.98% | viability, T/C [11]: 2.15% | viability, T/C [12]: 0.5% | viability, T/C [31]: 15.6% | viability, T/C [32]: 12.1% | viability, T/C [13]: 6.92% | viability, T/C [14]: 4.04% | viability, T/C [15]: 1.17% | viability, T/C [16]: 0.45% | viability, T/C [33]: 15.5% | viability, T/C [34]: 12.8% | viability, T/C [17]: 8.33% | viability, T/C [18]: 3.11% | viability, T/C [19]: 0.87% | viability, T/C [20]: 0.39% | viability, T/C [35]: 14.3% | viability, T/C [36]: 10.3% | viability, T/C [21]: 6.72% | viability, T/C [22]: 3.94% | viability, T/C [23]: 1.19% | viability, T/C [24]: 0.48%
